From PMC7156458, “Synthetic biology based construction of biological activity-related library of fungal decalin-containing diterpenoid pyrones” (Nature Communications, 2020)
Where two headings read alike, the source gives them in different places.

Assays:
[1] = cytotoxicity in Drosophila l(2)mbn cells; assay type: cell-based; conditions: Drosophila, l(2)mbn cells (larval blood cell-derived)
Method: (§1) We screened the DDPs on the Drosophila assay system for cytotoxicity, inhibitory activity of innate immune signalling and insecticidal activity. The cytotoxicity of the DDPs was evaluated using two cell lines, embryonic macrophage-derived DL1 cells[58]–[60] and larval blood cell-derived l(2)mbn cells, and their IC50 values are listed in Supplementary Table 23.

l(2)mbn cells = assay: cytotoxicity in Drosophila l(2)mbn cells; assay type: cell-based; conditions: for Luminescence Raw1: replicate 1; for Luminescence Raw2: replicate 2; for IC50: Drosophila melanogaster, cytotoxicity
Method: as §1

[2] = cytotoxicity in Drosophila DL1 cells; assay type: cell-based; conditions: Drosophila, DL1 cells (embryonic macrophage-derived), DL1 cells
Method: as §1

DL1 cells = assay: cytotoxicity in Drosophila DL1 cells; assay type: cell-based; conditions: DL1 cells; for IC50: Drosophila melanogaster, cytotoxicity
Method: as §1

MAGI cells = assay: cytotoxicity in the anti-HIV assay (CC50); assay type: cell-based; conditions: single determinations
[3] = test system: human immunodeficiency virus-1 (HIV-1); assay: anti-HIV MAGI assay; assay type: cell-based; conditions: Human immunodeficiency virus 1, MAGI, anti-HIV
Excerpt: We examined the inhibitory activities of DDPs against various species of bacteria (both gram-negative and gram-positive bacteria), fungi and viruses. […] In contrast, preliminary screening of the DDPs for anti-viral agents with hepatitis B virus (HBV), measles virus (MV), Epstein-Barr virus (EBV), herpes simplex virus (HSV) and human immunodeficiency virus-1 (HIV-1) indicated their selective inhibition of HIV.

MCF-7 cells = assay: cell cytotoxic effects against MCF-7 cells (72 h), A490; assay type: cell-based, human
[4] = replicate 1, relative to DMSO 1%, read-out: % viability, viability 1
[5] = replicate 2, relative to DMSO 1%, read-out: % viability, viability 2
[6] = average of two replicates, read-out: IC50 Average
[7] = replicate 1, read-out: IC50 (1)
[8] = replicate 2, read-out: IC50 (2)

For `C=C1CC[C@H]2[C@]3(C)C[C@@H](C=C(C)C)O[C@H]3CC[C@]2(C)[C@@H]1Cc1c(OC)oc(CO)c(C)c1=O` [Compound 17], which viability at 0.04 µM [1, 4] is on record?
Its viability at 0.04 µM is 35.7%.

What about the viability at 0.04 µM [1, 5] of the same compound?
Its viability at 0.04 µM is 83.5%.

What about the viability at 0.2 µM [1, 4] of the same compound?
Its viability at 0.2 µM is 61.4%.

What about the viability at 0.2 µM [1, 5] of the same compound?
The viability at 0.2 µM was 95.4%.

And the viability at 1 µM [1, 4]?
The viability at 1 µM was 76.8%.

What about the viability at 1 µM [1, 5] of the same compound?
Its viability at 1 µM is 97%.

What about the viability at 4 µM [1, 4] of the same compound?
The viability at 4 µM was 31.4%.

And the viability at 4 µM [1, 5]?
The viability at 4 µM was 22.2%.

What about the viability at 10 µM [1, 4] of the same compound?
Its viability at 10 µM is 1.94%.

What about the viability at 10 µM [1, 5] of the same compound?
Its viability at 10 µM is 1.93%.

What about the viability at 20 µM [1, 4] of the same compound?
The viability at 20 µM was 1.88%.

And the viability at 20 µM [1, 5]?
The viability at 20 µM was 3.89%.

And the “Luminescence Raw1” value (l(2)mbn cells; 0.04 µM)?
Its value is 2242516.

And the “Luminescence Raw2” value (l(2)mbn cells; 0.04 µM)?
Its value is 5241058.

And the “Luminescence Raw1” value (l(2)mbn cells; 0.2 µM)?
The value was 3856705.

And the “Luminescence Raw2” value (l(2)mbn cells; 0.2 µM)?
The value was 5991979.

And the “Luminescence Raw1” value (l(2)mbn cells; 1 µM)?
The value was 4822512.

And the “Luminescence Raw2” value (l(2)mbn cells; 1 µM)?
Its value is 6091579.

And the “Luminescence Raw1” value (l(2)mbn cells; 4 µM)?
Its value is 1969854.

What about the “Luminescence Raw2” value (l(2)mbn cells; 4 µM) of the same compound?
The value was 1392467.

What about the “Luminescence Raw1” value (l(2)mbn cells; 10 µM) of the same compound?
Its value is 122097.

And the “Luminescence Raw2” value (l(2)mbn cells; 10 µM)?
Its value is 121376.

What about the “Luminescence Raw1” value (l(2)mbn cells; 20 µM) of the same compound?
Its value is 118130.

And the “Luminescence Raw2” value (l(2)mbn cells; 20 µM)?
The value was 243967.

What about the IC50 (l(2)mbn cells; [6]) of the same compound?
The IC50 was 1780 nM.

What about the IC50 (l(2)mbn cells; average±SEM, read-out: IC50) of the same compound?
Its IC50 is 1780 ± 430 nM.

And the IC50 (l(2)mbn cells; [7])?
Its IC50 is 1350 nM.

What about the IC50 (l(2)mbn cells; [8]) of the same compound?
The IC50 was 2220 nM.

What about the viability at 0.04 µM [2, 4] of the same compound?
Its viability at 0.04 µM is 195%.

And the viability at 0.04 µM [2, 5]?
The viability at 0.04 µM was 207%.

And the viability at 0.2 µM [2, 4]?
Its viability at 0.2 µM is 174%.

What about the viability at 0.2 µM [2, 5] of the same compound?
Its viability at 0.2 µM is 181%.

What about the viability at 1 µM [2, 4] of the same compound?
Its viability at 1 µM is 94.2%.

And the viability at 1 µM [2, 5]?
Its viability at 1 µM is 35.7%.

What about the viability at 4 µM [2, 4] of the same compound?
Its viability at 4 µM is 19.3%.

What about the viability at 4 µM [2, 5] of the same compound?
Its viability at 4 µM is 20.1%.

And the viability at 10 µM [2, 4]?
Its viability at 10 µM is 18.3%.

What about the viability at 10 µM [2, 5] of the same compound?
Its viability at 10 µM is 18.8%.

And the viability at 20 µM [2, 4]?
The viability at 20 µM was 15.2%.

What about the viability at 20 µM [2, 5] of the same compound?
The viability at 20 µM was 19.6%.

And the “Luminescence Raw1” value (DL1 cells; 0.04 µM, replicate 1)?
The value was 2678864.

What about the “Luminescence Raw2” value (DL1 cells; 0.04 µM, replicate 2) of the same compound?
The value was 2844064.

What about the “Luminescence Raw1” value (DL1 cells; 0.2 µM, replicate 1) of the same compound?
The value was 2387791.

And the “Luminescence Raw2” value (DL1 cells; 0.2 µM, replicate 2)?
Its value is 2484453.

And the “Luminescence Raw1” value (DL1 cells; 1 µM, replicate 1)?
The value was 1292136.

And the “Luminescence Raw2” value (DL1 cells; 1 µM, replicate 2)?
Its value is 490161.

What about the “Luminescence Raw1” value (DL1 cells; 4 µM, replicate 1) of the same compound?
The value was 264802.

And the “Luminescence Raw2” value (DL1 cells; 4 µM, replicate 2)?
The value was 275258.

What about the “Luminescence Raw1” value (DL1 cells; 10 µM, replicate 1) of the same compound?
Its value is 251461.

What about the “Luminescence Raw2” value (DL1 cells; 10 µM, replicate 2) of the same compound?
Its value is 258312.

And the “Luminescence Raw1” value (DL1 cells; 20 µM, replicate 1)?
The value was 208914.

What about the “Luminescence Raw2” value (DL1 cells; 20 µM, replicate 2) of the same compound?
Its value is 269129.

What about the IC50 (DL1 cells; [6]) of the same compound?
The IC50 was 2780 nM.

And the IC50 (DL1 cells; average±SEM, read-out: IC50)?
Its IC50 is 2780 ± 680 nM.

What about the IC50 (DL1 cells; [7]) of the same compound?
Its IC50 is 3460 nM.

And the IC50 (DL1 cells; [8])?
The IC50 was 2100 nM.

And the Cytotoxicity (MAGI cells)?
The Cytotoxicity was over 10 µM.

And the EC50 ([3]; MAGI assay, read-out: EC50)?
Its EC50 is under 200 nM.

What about the EC50 ([3]; average of numeric determinations, read-out: Avg. EC50) of the same compound?
The EC50 was 1360 nM.

What about the “cytotoxicity against the bulk of MCF-7 cells” value (MCF-7 cells) of the same compound?
The value was “dose-dependent cytotoxicity”.

What about the viability at 0.1 µM (MCF-7 cells; Homo sapiens, MCF7, 72 h, MCF-7, 72 h, 0.1 µM (DMSO 0.002%), read-out: A490 (control =1) ave) of the same compound?
Its viability at 0.1 µM is 84.7%.

What about the viability at 1 µM (MCF-7 cells; Homo sapiens, MCF7, 72 h, MCF-7, 72 h, 1 µM (DMSO 0.02%), read-out: A490 (control =1) ave) of the same compound?
The viability at 1 µM was 48.1%.

What about the viability at 10 µM (MCF-7 cells; Homo sapiens, MCF7, 72 h, MCF-7, 72 h, 10 µM (DMSO 0.2%), read-out: A490 (control =1) ave) of the same compound?
Its viability at 10 µM is 29.4%.

What about the A490 ave (MCF-7 cells; MCF-7, 72 h, 0.1 µM (DMSO 0.002%), control 1.064) of the same compound?
The A490 ave was 0.901.

And the A490 ave (MCF-7 cells; MCF-7, 72 h, 1 µM (DMSO 0.02%), control 1.104)?
Its A490 ave is 0.531.

What about the A490 ave (MCF-7 cells; MCF-7, 72 h, 10 µM (DMSO 0.2%), control 1.049) of the same compound?
Its A490 ave is 0.309.
